Test results as given in patent US20250222018A1, “METHODS OF USING AVERMECTIN COMPOSITIONS FOR THE TREATMENT OF PAIN AND DOSING REGIMENS” (L4 BIO LLC, priority 2022, published 2025).

System: pentylenetetrazol (PTZ)-induced ictal brain activity
Assay: Modulation of pentylenetetrazol (PTZ)-induced seizures, BOLD fMRI in rats
Type: in vivo, male Wistar rats
Details: for PTZ-induced brain activity, positive control compounds: Alprazolam 3 mg/kg i.p., 1 dose, no dose printed for Diazepam
Protocol: Functional MRI (fMRI) was performed using a high-field preclinical MRI system in anesthetized male Wistar rats in order to determine the modulation of pentylenetetrazol (PTZ)-induced ictal brain activity by chronic treatment with test compound (TC). […] Vehicle and 3 mg/kg Alprazolam served as controls (see, Table 11) Seizures were induced with PTZ in each experimental group. A schematic of the study design can be seen in FIG. 6. Various physiological parameters were also measured throughout the experiment including body weight, CO2 levels, blood pH, and heart rate. […] Vehicle and 3 mg/kg Alprazolam served as controls (see, Table 12).

Cc1nnc2n1-c1ccc(Cl)cc1C(c1ccccc1)=NC2 [Alprazolam]
PTZ-induced brain activity, positive control compounds: effectively cancelled PTZ-induced brain activity with high statistical significance in all tested brain regions | brain regions with statistical significance of BOLD fMRI AUC, Vehicle vs. Alprazolam (FIG. 7A, Alprazolam 3 mg/kg+PTZ, two-way ANOVA): in all

CN1C(=O)CN=C(c2ccccc2)c2cc(Cl)ccc21 [Diazepam]
PTZ-induced brain activity, positive control compounds: effectively cancelled PTZ-induced brain activity with high statistical significance in all tested brain regions
